Results published in PubChem BioAssay AID256 (DTP/NCI, 2004).
Where “and” joins values, the source holds several entries; their conditions need not be identical. Identical values can stand only once. Inconclusive results and toxic doses are left out. How the source made its calls: active means survival T/C of 150% or more; inactive means T/C below 125% in these data.

System: CD2F1 mice, L1210 leukemia ip, survival T/C
Experiment: NCI In Vivo Anticancer Drug Screen. Data for tumor model L1210 Leukemia (intraperitoneal) in CD2F1 (CDF1) mice
Conditions: endpoint: mean survival time, higher = longer survival
How it was run: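 Activity against a transplanted murine tumor was judged by comparing the compound group with a vehicle group. The outcome in the treated animals was divided by that in the controls.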

[1] = dose: 100.0 mg/kg/injection, schedule: Q04DX003 (ip), vehicle: saline with Tween-80
[2] = dose: 200.0 mg/kg/injection, schedule: Q04DX003 (ip), vehicle: saline with Tween-80
[3] = dose: 100.0 mg/kg/injection, schedule: Q01DX009 (ip), vehicle: saline with Tween-80
[4] = dose: 200.0 mg/kg/injection, schedule: Q01DX009 (ip), vehicle: saline with Tween-80
[5] = dose: 100.0 mg/kg/injection, schedule: Q01DX001 (ip), vehicle: saline
[6] = dose: 200.0 mg/kg/injection, schedule: Q01DX001 (ip), vehicle: saline
[7] = dose: 400.0 mg/kg/injection, schedule: Q01DX001 (ip), vehicle: saline
[8] = dose: 50.0 mg/kg/injection, schedule: Q01DX009 (ip), vehicle: saline with Tween-80
[9] = dose: 100.0 mg/kg/injection, schedule: Q04DX003 (ip), vehicle: saline

Measured: T/C

CCCCCCCCCCCCCCn1cnc2c(Cl)ncnc21
inactive: dose: 12.5 mg/kg/injection, schedule: Q01DX005 (ip), vehicle: other 105 % of control | dose: 25.0 mg/kg/injection, schedule: Q01DX005 (ip), vehicle: other 97 % of control | dose: 50.0 mg/kg/injection, schedule: Q01DX005 (ip), vehicle: other 94 % of control | dose: 100.0 mg/kg/injection, schedule: Q01DX005 (ip), vehicle: other 97 % of control | dose: 200.0 mg/kg/injection, schedule: Q01DX005 (ip), vehicle: other 102 % of control

CC(C)(C=O)CNC(C)(C)C
inactive: [1] 105 % of control | [2] 96 % of control

CC1CCC[N-]C1.CC1CCC[N-]C1.CC1CCC[N-]C1.CC1CCC[N-]C1.[Cl][Rh][Cl] (stereo not given)
inactive: dose: 4.0 mg/kg/injection, schedule: Q01DX009 (ip), vehicle: saline 109 % of control | dose: 6.0 mg/kg/injection, schedule: Q01DX009 (ip), vehicle: saline 122 % of control | dose: 9.0 mg/kg/injection, schedule: Q01DX009 (ip), vehicle: saline 114 % of control

O=S(=O)(Nc1cc(S(=O)(=O)c2ccccc2)c(O)c2ccccc12)c1ccccc1
inactive: [1] 96 % of control | [2] 86 % of control | dose: 400.0 mg/kg/injection, schedule: Q04DX003 (ip), vehicle: saline with Tween-80 91 % of control

Cc1ccc(S(=O)(=O)OC2CCCCC2c2ccc(C(F)(F)F)cc2)cc1 (stereo not given)
inactive: dose: 75.0 mg/kg/injection, schedule: Q01DX001 (ip), vehicle: other 96 % of control | dose: 150.0 mg/kg/injection, schedule: Q01DX001 (ip), vehicle: other 88 % of control | dose: 300.0 mg/kg/injection, schedule: Q01DX001 (ip), vehicle: other 88 % of control

Nc1ccc(CCc2ccccc2)cc1
inactive: dose: 50.0 mg/kg/injection, schedule: Q04DX002 (ip), vehicle: saline with Tween-80 98 % of control and 105 % of control | dose: 50.0 mg/kg/injection, schedule: Q04DX003 (ip), vehicle: saline with Tween-80 104 % of control | [1] 100 % of control and 101 % of control and 107 % of control | [2] 92 % of control and 104 % of control

CN/N=C1\CCC2(C)C(CCC3C4CCC(O)C4(C)CCC32)C1 (stereo not given)
inactive: dose: 12.5 mg/kg/injection, schedule: Q01DX009 (ip), vehicle: Klucel (hydroxypropylcellulose) (HPC) 88 % of control | dose: 25.0 mg/kg/injection, schedule: Q01DX009 (ip), vehicle: Klucel (hydroxypropylcellulose) (HPC) 89 % of control | dose: 50.0 mg/kg/injection, schedule: Q01DX009 (ip), vehicle: Klucel (hydroxypropylcellulose) (HPC) 91 % of control and 105 % of control

O=C1OC2(c3ccc(O)cc3Oc3cc(O)ccc32)C2C1C1(Cl)C(Cl)=C(Cl)C2(Cl)C1(Cl)Cl (stereo not given)
inactive: [3] 101 % of control | [4] 97 % of control | dose: 400.0 mg/kg/injection, schedule: Q01DX009 (ip), vehicle: saline with Tween-80 95 % of control

O=C(CNC(=O)Nc1cccc([N+](=O)[O-])c1)NNC(=O)Nc1ccccc1F
inactive: [3] 88 % of control | [4] 88 % of control

O=c1[nH]c(=O)n(C2CCOC2)cc1Br (stereo not given)
inactive: [5] 103 % of control | [6] 100 % of control | [7] 103 % of control

CC(=O)Nc1ccc(/C=N\NC(=O)CNC(=O)Nc2ccc(F)cc2)cc1
inactive: [8] 96 % of control | [3] 96 % of control

C=C1OC(n2cnc3c(N)ncnc32)C(O)C1O (stereo not given)
inactive: [5] 98 % of control | [6] 101 % of control | [7] 98 % of control

O=C(O)C(CSC(c1ccccc1)(c1ccccc1)c1ccccc1)NC(c1ccccc1)c1ccccc1 (stereo not given)
inactive: dose: 50.0 mg/kg/injection, schedule: Q01DX009 (ip), vehicle: saline 101 % of control | dose: 100.0 mg/kg/injection, schedule: Q01DX009 (ip), vehicle: saline 98 % of control | dose: 200.0 mg/kg/injection, schedule: Q01DX009 (ip), vehicle: saline 101 % of control | dose: 400.0 mg/kg/injection, schedule: Q01DX009 (ip), vehicle: saline 101 % of control

CN(Cc1ccc(C#N)cc1)N=Nc1ccc(C(=O)O)cc1
inactive: dose: 25.0 mg/kg/injection, schedule: Q01DX009 (ip), vehicle: other 106 % of control | dose: 50.0 mg/kg/injection, schedule: Q01DX009 (ip), vehicle: other 87 % of control | dose: 100.0 mg/kg/injection, schedule: Q01DX009 (ip), vehicle: other 106 % of control | dose: 200.0 mg/kg/injection, schedule: Q01DX009 (ip), vehicle: other 102 % of control | dose: 400.0 mg/kg/injection, schedule: Q01DX009 (ip), vehicle: other 120 % of control

COC(=O)C(Cc1ccc(N(CCCl)CCCl)cc1)N=NNc1nc[nH]c1C(N)=O (stereo not given)
inactive: dose: 88.0 mg/kg/injection, schedule: Q01DX001 (ip), vehicle: steriod suspending solution 116 % of control | dose: 133.0 mg/kg/injection, schedule: Q01DX001 (ip), vehicle: steriod suspending solution 115 % of control | dose: 300.0 mg/kg/injection, schedule: Q01DX001 (ip), vehicle: steriod suspending solution 116 % of control

COc1ccc(C(C)C(O)c2ccccc2)cc1 (stereo not given)
inactive: [9] 103 % of control | dose: 200.0 mg/kg/injection, schedule: Q04DX003 (ip), vehicle: saline 108 % of control | dose: 400.0 mg/kg/injection, schedule: Q04DX003 (ip), vehicle: saline 102 % of control

C/C=C1/C(=O)Oc2ccccc21
inactive: [8] 101 % of control | [3] 101 % of control | [4] 106 % of control

CC(=O)CCN1Cc2cc3c(cc2C(O)C1)OCO3 (stereo not given)
inactive: dose: 75.0 mg/kg/injection, schedule: Q01DX001 (ip), vehicle: saline 104 % of control | dose: 150.0 mg/kg/injection, schedule: Q01DX001 (ip), vehicle: saline 97 % of control | dose: 300.0 mg/kg/injection, schedule: Q01DX001 (ip), vehicle: saline 95 % of control

NC(=O)c1cn(C2CC(O)C(CO)O2)c2ncnc(N)c12 (stereo not given)
inactive: dose: 0.03 mg/kg/injection, schedule: Q01DX009 (ip), vehicle: water 93 % of control | dose: 0.06 mg/kg/injection, schedule: Q01DX009 (ip), vehicle: water 93 % of control | dose: 0.13 mg/kg/injection, schedule: Q01DX009 (ip), vehicle: water 94 % of control | dose: 0.25 mg/kg/injection, schedule: Q01DX009 (ip), vehicle: water 98 % of control | dose: 0.5 mg/kg/injection, schedule: Q01DX009 (ip), vehicle: water 102 % of control | dose: 1.0 mg/kg/injection, schedule: Q01DX009 (ip), vehicle: water 98 % of control | dose: 2.0 mg/kg/injection, schedule: Q01DX009 (ip), vehicle: water 100 % of control | dose: 4.0 mg/kg/injection, schedule: Q01DX009 (ip), vehicle: water 104 % of control | dose: 5.0 mg/kg/injection, schedule: Q01DX009 (ip), vehicle: water 108 % of control | dose: 8.0 mg/kg/injection, schedule: Q01DX009 (ip), vehicle: water 100 % of control | dose: 10.0 mg/kg/injection, schedule: Q01DX009 (ip), vehicle: water 99 % of control | dose: 16.0 mg/kg/injection, schedule: Q01DX009 (ip), vehicle: water 98 % of control | dose: 20.0 mg/kg/injection, schedule: Q01DX009 (ip), vehicle: water 104 % of control | dose: 40.0 mg/kg/injection, schedule: Q01DX009 (ip), vehicle: water 101 % of control | dose: 80.0 mg/kg/injection, schedule: Q01DX009 (ip), vehicle: water 103 % of control | dose: 160.0 mg/kg/injection, schedule: Q01DX009 (ip), vehicle: water 104 % of control

CC(C)=NC(=O)NO.[Cl][Co][Cl]
inactive: dose: 50.0 mg/kg/injection, schedule: Q04DX003 (ip), vehicle: saline 109 % of control | dose: 75.0 mg/kg/injection, schedule: Q04DX003 (ip), vehicle: saline 113 % of control | [9] 100 % of control | dose: 125.0 mg/kg/injection, schedule: Q04DX003 (ip), vehicle: saline 113 % of control

CCCCCCCCN(C)N=Nc1ccccc1
inactive: dose: 79.0 mg/kg/injection, schedule: Q01DX009 (ip), vehicle: Klucel (hydroxypropylcellulose) (HPC) 110 % of control | dose: 177.0 mg/kg/injection, schedule: Q01DX009 (ip), vehicle: Klucel (hydroxypropylcellulose) (HPC) 124 % of control | dose: 266.0 mg/kg/injection, schedule: Q01DX009 (ip), vehicle: Klucel (hydroxypropylcellulose) (HPC) 122 % of control
